# Experimental data taken from patent US5135947A, “1-phenyl-3-naphthalenyloxypropanamines and their use as selective serotonin reuptake inhibitors” (Eli Lilly and Company, priority 1990, dated 1992).
# Structures can show the parent of a compound that is named as a salt.
# System: 5HT uptake
# Test: Inhibition of 5HT uptake in vitro (synaptosomal uptake of 3H-serotonin, rat cortical synaptosomes)
# Type: biochemical, rat (male Sprague-Dawley)
# Settings: 50 nM 3H-5HT, cortical synaptosomes, 37° C., 5 min
# Protocol: This general procedure is set forth by Wong et al., in Drug Development Research 6:397-403 (1985).
# Male Sprague-Dawley rats (110-150 g) from Harlan Industries (Cumberland, Ind.) were fed Purina Chow ad libitum for at least 3 days before being used in the studies. Rats were killed by decapitation. Whole brains were removed and dissected. Cerebral cortex was homogenized in 9 volumes of a medium containing 0.32M sucrose and 10 mM glucose. Crude synaptosomal preparations were isolated after differential centrifugation at 1,000 g for 10 min. and 17,000 g for 28 min. The final pellets were suspended in the same medium and kept in ice until use within the same day.
# Synaptosomal uptake of ^3 H-serotonin(^3 H-5-hydroxytryptamine, ^3 H-5HT) was determined as follows. Cortical synaptosomes (equivalent to 1 mg of protein) were incubated at 37° C. for 5 min in 1 ml of Krebs-bicarbonate medium containing also 10 mM glucose, 0.1 mM iproniazid, 1 mM ascorbic acid, 0.17 mM EDTA and 50 nM ^3 H-5HT The reaction mixture was immediately diluted with 2 ml of ice-chilled Krebs-bicarbonatebuffer and filtered under vacuum with a cell harvester (Brandel, Gaithersburg, Md.). Filters were rinsed twice with approximately 5 ml of ice-chilled 0.9% saline and were transferred to a counting vial containing 10 ml of scintillation fluid (PCS, Amersham, Arlington Heights, Ill.). Radioactivity was measured by a liquid scintillation spectrophotometer. Accumulation of ^3 H-5HT at 4° C. represented the background and was subtracted from all samples.
# The numbers in parentheses represent percent inhibition at 1000 nM.
row,Compound,IC50 [µM]
1,"Cc1ccccc1C(CCOc1cccc2ccccc12)N(C)C (stereo not shown) [Example 30, N,N-Dimethyl-1-(2-methylphenyl)-3-(1-naphthalenyloxy)propanamine oxalate]",0.01
2,"COc1ccc(C(N)CCOc2cccc3ccccc23)cc1 (stereo not shown) [Example 16, 1-(4-Methoxyphenyl)-3-(1-naphthalenyloxy)propanamine oxalate]",0.1
3,"Cc1cccc(C(CCOc2cccc3ccccc23)N(C)C)c1 (stereo not shown) [Example 32, N,N-Dimethyl-1-(3-methylphenyl)-3-(1-naphthalenyloxy)propanamine oxalate]",0.013
4,"Cc1ccc(C(CCOc2cccc3ccccc23)N(C)C)cc1 (stereo not shown) [Example 26, N,N-Dimethyl-1-(4-methylphenyl)-3-(1-naphthalenyloxy)propanamine oxalate]",0.08
5,"NC(CCOc1cccc2ccccc12)c1ccccc1 (stereo not shown) [Example 35, 1-Phenyl-3-(1-naphthalenyloxy)propanamine oxalate]",0.08
6,"CN(C)C(CCOc1cccc2ccccc12)c1ccccc1 (stereo not shown) [Example 27, N,N-Dimethyl-1-phenyl-3-(1-naphthalenyloxy)propanamine oxalate]",0.01
7,"CN(C)C(CCOc1cccc2ccccc12)c1cccc(C(F)(F)F)c1 (stereo not shown) [Example 9, N,N-Dimethyl-1-[3-(trifluoromethyl)phenyl]-3-(1-naphthalenyloxy)propanamineoxlate]",0.5
8,"CNC(CCOc1cccc2ccccc12)c1ccccc1 (stereo not shown) [Example 33, N-Methyl-1-phenyl-3-(1-naphthalenyloxy)propanamine oxalate]",0.035
9,"CN(C)C(CCOc1cccc2ccccc12)c1ccccc1 (single isomer, unassigned) [Example 36, (+)-N,N-Dimethyl-1-phenyl-3-(1-naphthalenyloxy)propanamine (+)-tartrate]",0.01
10,"CN(C)C(CCOc1cccc2ccccc12)c1ccc(Cl)cc1 (stereo not shown) [Example 15, N,N-Dimethyl-1-(4-chlorophenyl)-3-(1-naphthalenyloxy)propanamine oxalate]",0.11
11,"COc1ccccc1C(CCOc1cccc2ccccc12)N(C)C (stereo not shown) [Example 21, N,N-Dimethyl-1-(2-methoxyphenyl)-3-(1-naphthalenyloxy)propanamine oxalate]",0.016
12,"CN(C)C(CCOc1cccc2ccccc12)c1ccc(C(F)(F)F)cc1 (stereo not shown) [Example 31, N,N-Dimethyl-1-[4-(trifluoromethyl)phenyl]-3-(1-naphthalenyloxy)propanamineoxalate]",0.195
13,"CN(C)C(CCOc1cccc2ccccc12)c1ccccc1 (single isomer, unassigned) [Example 37, (-)-N,N-Dimethyl-1-phenyl-3-(1-naphthalenyloxy)propanamine (-)-tartrate]",0.035
14,"COc1cccc(C(CCOc2cccc3ccccc23)N(C)C)c1 (stereo not shown) [Example 19, N,N-Dimethyl-1-(3-methoxyphenyl)-3-(1-naphthalenyloxy)propanamine oxalate]",0.029
15,"COc1ccc(OCCC(c2ccccc2)N(C)C)c2ccccc12 (stereo not shown) [Example 5, N,N-Dimethyl-1-phenyl-3-(4-methoxy-1-naphthalenyloxy)propanamine oxalate]",0.21
16,"CN(C)C(CCOc1cccc2ccccc12)c1ccc(F)cc1 (stereo not shown) [Example 25, N,N-Dimethyl-1-(4-fluorophenyl)-3-(1-naphthalenyloxy)propanamine oxalate]",0.05

row,Compound,IC50 [µM]
1,"CN(C)C(CCOc1ccc(Cl)c2ccccc12)c1ccccc1 (stereo not shown) [Example 34, N,N-Dimethyl-1-phenyl-3-(4-chloro-1-naphthalenyloxy)propanamine oxalate]",0.088
2,"NC(CCOc1cccc2ccccc12)c1cccc(Cl)c1 (stereo not shown) [Example 12, 1-(3-Chlorophenyl)-3-(1-naphthalenyloxy)propanamine oxalate]",0.15
3,"NC(CCOc1cccc2ccccc12)c1ccccc1Cl (stereo not shown) [Example 10, 1-(2-Chlorophenyl)-3-(1-naphthalenyloxy)propanamine oxalate]",0.076
4,"CNC(CCOc1ccc(C)c2ccccc12)c1ccccc1 (stereo not shown) [Example 3, N-Methyl-1-phenyl-3-(4-methyl-1-naphthalenyloxy)propanamine oxalate]",0.037
5,"Cc1ccc(OCCC(c2ccccc2)N(C)C)c2ccccc12 (stereo not shown) [Example 2, N,N-Dimethyl-1-phenyl-3-(4-methyl-1-naphthalenyloxy)propanamine oxalate]",0.025
6,"NC(CCOc1cccc2ccccc12)c1ccccc1C(F)(F)F (stereo not shown) [Example 6, 1-[2-(Trifluoromethyl)phenyl]-3-(1-naphthalenyloxy)propanamine oxalate]",0.18
7,"CN(C)C(CCOc1cccc2ccccc12)c1cccc(Cl)c1 (stereo not shown) [Example 13, N,N-Dimethyl-1-(3-chlorophenyl)-3-(1-naphthalenyloxy)propanamine oxalate]",0.072
8,"Cc1ccc(OCCC(N)c2ccccc2)c2ccccc12 (stereo not shown) [Example 1, 1-Phenyl-3-(4-methyl-1-naphthalenyloxy)propanamine oxalate]",0.09
9,"COc1ccc(C(CCOc2cccc3ccccc23)N(C)C)cc1 (stereo not shown) [Example 17, N,N-Dimethyl-1-(4-methoxyphenyl)-3-(1-naphthalenyloxy)propanamine oxalate]",0.032
10,"CN(C)C(CCOc1ccc(C(F)(F)F)c2ccccc12)c1ccccc1 (stereo not shown) [Example 29, N,N-Dimethyl-1-phenyl-3-[4-(trifluoromethyl)-1-naphthalenyloxy)propanamine oxalate]",0.8
11,"CN(C)C(CCOc1cccc2ccccc12)c1ccccc1Cl (stereo not shown) [Example 11, N,N-Dimethyl-1-(2-chlorophenyl)-3-(1-naphthalenyloxy)propanamine oxalate]",0.033
12,"CNC(CCOc1cccc2ccccc12)c1ccc2c(c1)OCO2 (stereo not shown) [Example 24, oxalate]",0.047
13,"CN(C)C(CCOc1cccc2ccccc12)c1ccccc1C(F)(F)F (stereo not shown) [Example 7, N,N-Dimethyl-1-[2-(trifluoromethyl)phenyl]-3-(1-naphthalenyloxy)propanamineoxalate]",0.26
14,"NC(CCOc1cccc2ccccc12)c1ccc(Cl)cc1 (stereo not shown) [Example 14, 1-(4-Chlorophenyl)-3-(1-naphthalenyloxy)propanamine oxalate]",0.4
15,"COc1cccc(C(N)CCOc2cccc3ccccc23)c1 (stereo not shown) [Example 18, 1-(3-Methoxyphenyl)-3-(1-naphthalenyloxy)propanamine hydrochloride]",0.084

# Same assay, conditions: at 1000 nM; numbers in parentheses; 50 nM 3H-5HT, 37° C., 5 min
row,Compound,percent inhibition at 1000 nM [%]
1,"NC(CCOc1cccc2ccccc12)c1cccc(C(F)(F)F)c1 (stereo not shown) [Example 8, 1-[3-(Trifluoromethyl)phenyl]-3-(1-naphthalenyloxy)propanamine oxalate]",43
2,"COc1ccc(OCCC(N)c2ccccc2)c2ccccc12 (stereo not shown) [Example 4, 1-Phenyl-3-(4-methoxy-1-naphthalenyloxy)propanamine oxalate]",39
3,"COc1ccccc1C(N)CCOc1cccc2ccccc12 (stereo not shown) [Example 20, 1-(2-Methoxyphenyl)-3-(1-naphthalenyloxy)propanamine oxalate]",25
